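Protocol summary: plate cells (96-well), add compound at 5 concentrations, incubate 48 h, interpolate endpoints linearly. GI50 is the concentration that inhibits growth by half.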 Activity calls are given as the source filed them. No stated cut-off is given here; in the data, active = GI50 up to about 1.1 µM and inactive = higher.
Columns and labels:
Test in all cases: DTP human tumour cell line panel, 48 h
[1] = test system: ACHN
[2] = test system: LOX IMVI
[3] = test system: HCT-15
[4] = test system: MDA-N
[5] = test system: Malme-3M
[6] = test system: NCI-H460
[7] = test system: SNB-75
[8] = test system: U-251
[9] = test system: SR
[10] = test system: UO-31
[11] = test system: SF-539
[12] = test system: BT-549
[13] = test system: DU-145
[14] = test system: CCRF-CEM
[15] = test system: SK-MEL-28
[16] = test system: T47D
[17] = test system: SNB-19
[18] = test system: HCC 2998
[19] = test system: HL-60
[20] = test system: MDA-MB-231
[21] = test system: KM12
[22] = test system: HOP-92
[23] = test system: SN12C
[24] = test system: PC-3
[25] = test system: A549
[26] = test system: CAKI-1
[27] = test system: SK-OV-3
[28] = test system: OVCAR-8
[29] = test system: K562
[30] = test system: SF-268
[31] = test system: 786-0
[32] = test system: NCI/ADR-RES
[33] = test system: COLO 205
[34] = test system: UACC-257
[35] = test system: EKVX
[36] = test system: SF-295
[37] = test system: RXF 393
[38] = test system: Hs-578T
[39] = test system: SK-MEL-5
[40] = test system: MDA-MB-435
[41] = test system: OVCAR-5
[42] = test system: SK-MEL-2
[43] = test system: TK-10
[44] = test system: NCI-H522
[45] = test system: HOP-62
[46] = test system: HCT-116
[47] = test system: OVCAR-3
[48] = test system: M14
[49] = test system: RPMI-8226
[50] = test system: IGROV-1
[51] = test system: HT-29
[52] = test system: NCI-H23
[53] = test system: A498
[54] = test system: OVCAR-4
[55] = test system: NCI-H226
[56] = test system: SW-620
[57] = test system: MCF7
[58] = test system: MOLT-4
[59] = test system: UACC-62

Measured: GI50

CC(=N\N)/C(C)=N/N=C(C)/C(C)=N/N
inactive: [1] > 100 µM | [2] > 100 µM | [4] > 100 µM | [5] > 100 µM | [6] > 100 µM | [7] > 100 µM | [8] > 100 µM | [9] > 100 µM | [10] > 100 µM | [11] > 100 µM | [12] > 100 µM | [13] > 100 µM | [14] > 100 µM | [15] > 100 µM | [16] > 100 µM | [17] > 100 µM | [18] > 100 µM | [19] > 100 µM | [20] > 100 µM | [21] > 100 µM | [22] > 100 µM | [23] > 100 µM | [24] > 100 µM | [25] > 100 µM | [26] > 100 µM | [27] > 100 µM | [28] > 100 µM | [29] > 10 µM | [30] > 100 µM | [31] > 100 µM | [32] > 100 µM | [33] > 100 µM | [34] > 100 µM | [35] > 100 µM | [36] > 100 µM | [37] > 100 µM | [38] > 100 µM | [39] > 100 µM | [40] > 100 µM | [41] > 100 µM | [42] > 100 µM | [43] > 100 µM | [44] > 100 µM | [45] > 100 µM | [46] > 100 µM | [47] > 100 µM | [48] > 100 µM | [49] > 100 µM | [50] > 100 µM | [51] > 100 µM | [52] > 100 µM | [53] > 100 µM | [54] > 100 µM | [55] > 100 µM | [56] > 100 µM | [57] > 100 µM
> 100 µM: [3]

CCOC(=O)c1c(O)cn2c1[nH]c1cccc3cccc2c31
inactive: [1] 52.4 µM | [2] 46.9 µM | [4] > 100 µM | [5] > 100 µM | [6] 92.7 µM | [7] 37.4 µM | [8] 63.4 µM | [58] 44.2 µM | [9] 50.5 µM | [10] 69.2 µM | [12] > 100 µM | [13] 71.6 µM | [14] 32.6 µM | [15] > 100 µM | [16] 50.8 µM | [17] 97.7 µM | [18] 64.7 µM | [19] 57.3 µM | [20] > 100 µM | [21] > 100 µM | [22] 51.4 µM | [23] > 100 µM | [24] > 100 µM | [25] > 100 µM | [26] > 100 µM | [27] > 100 µM | [28] 44.1 µM | [29] > 100 µM | [30] 63.7 µM | [31] 52.2 µM | [32] > 100 µM | [33] 71.6 µM | [34] > 100 µM | [35] > 100 µM | [36] 87.5 µM | [37] 41.5 µM | [38] > 100 µM | [39] > 100 µM | [40] > 100 µM | [41] > 100 µM | [42] > 100 µM | [43] > 100 µM | [44] 46.5 µM | [45] 35.6 µM | [46] > 100 µM | [59] > 100 µM | [48] > 100 µM | [49] > 100 µM | [50] 62.2 µM | [51] > 100 µM | [52] 62.4 µM | [53] > 100 µM | [54] > 100 µM | [55] > 100 µM | [56] > 100 µM | [57] 49.2 µM
54.6 µM: [3]

CCC/C(Cl)=N/OC(=O)Nc1cccc(F)c1
1.85 µM: [3]
active: [9] 0.453 µM | [14] 0.526 µM | [29] 1.08 µM | [44] 0.309 µM
inactive: [1] 1.55 µM | [2] 1.91 µM | [4] 9.46 µM | [5] 1.73 µM | [6] 19 µM | [7] 3.4 µM | [8] 17.3 µM | [58] 1.89 µM | [10] 8.97 µM | [12] 2.32 µM | [13] 17.5 µM | [15] 5.12 µM | [16] 2.71 µM | [17] 17.9 µM | [18] 15.6 µM | [19] 1.28 µM | [20] 13.1 µM | [21] 15.7 µM | [22] 1.6 µM | [23] 6.75 µM | [24] 17 µM | [25] 19.1 µM | [26] 3.33 µM | [27] 17.3 µM | [28] 16 µM | [30] 21.7 µM | [31] 1.69 µM | [32] 6.04 µM | [33] 2.19 µM | [34] 14.8 µM | [35] 2.46 µM | [36] 17.5 µM | [37] 3.23 µM | [38] 9.75 µM | [39] 5.79 µM | [40] 11.9 µM | [41] 19.1 µM | [42] 18.7 µM | [43] 2.38 µM | [45] 16.4 µM | [46] 4.19 µM | [59] 14.4 µM | [47] 2.61 µM | [48] 3.94 µM | [49] 1.96 µM | [50] 13.2 µM | [51] 4.91 µM | [52] 16.7 µM | [53] > 10 µM | [54] 9.79 µM | [55] 14.6 µM | [56] 1.8 µM | [57] 2.77 µM

— ChEMBL document CHEMBL1201862, “PubChem BioAssay data set” (2004)
